Assay results: patent US20170334891A1, “ENHANCER OF ZESTE HOMOLOG 2 INHIBITORS” (GLAXOSMITHKLINE INTELLECTUAL PROPERTY (NO.2) LIMITED, priority 2014, published 2017)

Target: T1, EZH2 within the PRC2 complex (Homo sapiens, UniProt Q15910)
T1 construct: FLAG; made in house; host or cells: Sf9 cells
Assay: EZH2 methyltransferase scintillation proximity assay (SPA)
Assay type: biochemical
Conditions: Human PRC2 5 member complex (FLAG-EZH2, EED, SUZ12, RbAp48, AEBP2), 1 nM enzyme, biotinylated histone H3K27 peptide, 3H-SAM, 60 min at room temperature
Method: Compounds contained herein were evaluated for their ability to inhibit the methyltransferase activity of EZH2 within the PRC2 complex. Human PRC2 complex was prepared by co-expressing each of the 5 member proteins (FLAG-EZH2, EED, SUZ12, RbAp48, AEBP2) in Sf9 cells followed by co-purification. Enzyme activity was measured in a scintillation proximity assay (SPA) where a tritiated methyl group is transferred from 3H-SAM to a lysine residue on a biotinylated, unmethylated peptide substrate derived from histone H3. The peptides were captured on streptavidin-coated SPA beads and the resulting signal was read on a ViewLux plate reader.
• 1. Prepare 10 mM stock of compounds from solid in 100% DMSO. • 2. Set up an 11-point serial dilution (1:4 dilution, top concentration 10 mM) in 100% DMSO for each test compound in a 384 well plate leaving columns 6 and 18 for DMSO controls. • 3. Dispense 10 nL of compound from the dilution plate into reaction plates (Corning, 384-well polystyrene NBS, Cat#3673).
Prepare the following solutions: • 1. 1× Base Buffer, 50 mM Tris-HCl, pH 8, 2 mM MgCl2: Per 1 L of base buffer, combine 1 M Tris-HCl, pH 8 (50 mL), 1 M MgCl2 (2 mL), and distilled water (948 mL). • 2. 1× Assay Buffer: Per 10 mL of 1× Assay Buffer, combine 1× Base Buffer (9.96 mL), 1 M DTT (40 uL), and 10% Tween-20 (1 uL) to provide a final concentration of 50 mM Tris-HCl, pH 8, 2 mM MgCl2, 4 mM DTT, 0.001% Tween-20. • 3. 2× Enzyme Solution: Per 10 mL of 2× Enzyme Solution, combine 1× Assay Buffer (9.99 mL) and 3.24 uM EZH2 5 member complex (6.17 uL) to provide a final enzyme concentration of 1 nM. • 4. SPA Bead Solution: Per 1 mL of SPA Bead Solution, combine Streptavidin coated SPA beads (PerkinElmer, Cat# RPNQ0261, 40 mg) and 1× Assay Buffer (1 mL) to provide a working concentration of 40 mg/mL. • 5. 2× Substrate Solution: Per 10 mL of 2× Substrate Solution, combine 40 mg/mL SPA Bead Solution (375 uL), 1 mM biotinylated histone H3K27 peptide (200 uL), 12.5 uM 3H-SAM (240 uL; 1 mCi/mL), 1 mM cold SAM (57 uL), and 1× Assay Buffer (9.13 mL) to provide a final concentration of 0.75 mg/mL SPA Bead Solution, 10 uM biotinylated histone H3K27 peptide, 0.15 uM 3H-SAM (˜12 uCi/mL 3H-SAM), and 2.85 uM cold SAM. • 6. 2.67× Quench Solution: Per 10 mL of 2.67× Quench Solution, combine 1× Assay Buffer (9.73 mL) and 10 mM cold SAM (267 uL) to provide a final concentration of 100 uM cold SAM.
• 1. Stamp 10 nL/well of 1000× Compound to test wells (as noted above). • 2. Stamp 10 nL/well of 100% DMSO to columns 6 & 18 (high and low controls, respectively).
• 1. Dispense 5 uL/well of 1× Assay Buffer to column 18 (low control reactions). • 2. Dispense 5 uL/well of 2× Substrate Solution to columns 1-24 (note: substrate solution should be mixed to ensure homogeneous bead suspension before dispensing into matrix reservoir). • 3. Dispense 5 uL/well of 2× Enzyme Solution to columns 1-17, 19-24. • 4. Incubate the reaction for 60 min at room temperature.
• 1. Dispense 6 uL/well of the 2.67× Quench Solution to columns 1-24. • 2. Seal assay plates and spin for ˜1 min at 500 rpm. • 3. Dark adapt plates in the ViewLux instrument for 15-60 min.
• 1. Read the assay plates on the Viewlux Plate Reader utilizing the 613 nm emission filter or clear filter (300 s exposure). Reagent addition can be done manually or with automated liquid handler.
Percent inhibition was calculated relative to the DMSO control for each compound concentration and the resulting values were fit using standard IC50 fitting parameters within the ABASE data fitting software package.
The IC50 values of <10 nM indicate that the activity of compound was approaching the limit of detection in the assay. Repeating the assay run(s) may result in somewhat different IC50 values.

T1 sequence (Q15910 whole entry): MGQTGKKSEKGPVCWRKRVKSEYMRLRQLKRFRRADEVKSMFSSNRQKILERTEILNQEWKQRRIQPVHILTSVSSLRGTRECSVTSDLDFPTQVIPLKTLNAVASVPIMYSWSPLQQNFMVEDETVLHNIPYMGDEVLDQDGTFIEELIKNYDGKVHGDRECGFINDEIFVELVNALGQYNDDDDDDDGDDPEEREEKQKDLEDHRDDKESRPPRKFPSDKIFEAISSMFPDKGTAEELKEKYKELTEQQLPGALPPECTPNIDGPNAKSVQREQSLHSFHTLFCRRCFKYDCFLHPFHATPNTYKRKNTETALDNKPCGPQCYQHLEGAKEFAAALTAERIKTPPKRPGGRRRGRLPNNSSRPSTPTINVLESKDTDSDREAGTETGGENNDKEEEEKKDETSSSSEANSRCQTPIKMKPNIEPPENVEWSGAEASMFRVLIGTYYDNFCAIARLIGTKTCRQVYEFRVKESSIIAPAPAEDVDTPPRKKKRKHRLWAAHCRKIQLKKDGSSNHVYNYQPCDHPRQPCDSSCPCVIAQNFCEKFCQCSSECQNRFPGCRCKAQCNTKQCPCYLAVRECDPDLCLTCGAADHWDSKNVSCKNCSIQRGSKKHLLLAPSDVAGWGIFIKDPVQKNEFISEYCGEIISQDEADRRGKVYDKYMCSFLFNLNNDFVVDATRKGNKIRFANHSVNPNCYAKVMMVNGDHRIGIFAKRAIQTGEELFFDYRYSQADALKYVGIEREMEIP
T1 sequence (O75530 whole entry partner): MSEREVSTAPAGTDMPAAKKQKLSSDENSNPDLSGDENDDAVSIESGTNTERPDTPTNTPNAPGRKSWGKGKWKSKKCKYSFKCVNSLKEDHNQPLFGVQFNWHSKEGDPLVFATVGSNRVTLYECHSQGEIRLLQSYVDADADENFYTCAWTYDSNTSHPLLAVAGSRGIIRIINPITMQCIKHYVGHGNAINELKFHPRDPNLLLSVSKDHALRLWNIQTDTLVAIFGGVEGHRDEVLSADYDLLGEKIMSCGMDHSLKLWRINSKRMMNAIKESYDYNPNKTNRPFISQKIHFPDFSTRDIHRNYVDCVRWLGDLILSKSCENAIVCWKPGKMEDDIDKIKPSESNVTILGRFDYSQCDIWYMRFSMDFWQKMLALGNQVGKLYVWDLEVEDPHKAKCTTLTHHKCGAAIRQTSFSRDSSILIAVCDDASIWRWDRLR
T1 sequence (Q15022 whole entry partner): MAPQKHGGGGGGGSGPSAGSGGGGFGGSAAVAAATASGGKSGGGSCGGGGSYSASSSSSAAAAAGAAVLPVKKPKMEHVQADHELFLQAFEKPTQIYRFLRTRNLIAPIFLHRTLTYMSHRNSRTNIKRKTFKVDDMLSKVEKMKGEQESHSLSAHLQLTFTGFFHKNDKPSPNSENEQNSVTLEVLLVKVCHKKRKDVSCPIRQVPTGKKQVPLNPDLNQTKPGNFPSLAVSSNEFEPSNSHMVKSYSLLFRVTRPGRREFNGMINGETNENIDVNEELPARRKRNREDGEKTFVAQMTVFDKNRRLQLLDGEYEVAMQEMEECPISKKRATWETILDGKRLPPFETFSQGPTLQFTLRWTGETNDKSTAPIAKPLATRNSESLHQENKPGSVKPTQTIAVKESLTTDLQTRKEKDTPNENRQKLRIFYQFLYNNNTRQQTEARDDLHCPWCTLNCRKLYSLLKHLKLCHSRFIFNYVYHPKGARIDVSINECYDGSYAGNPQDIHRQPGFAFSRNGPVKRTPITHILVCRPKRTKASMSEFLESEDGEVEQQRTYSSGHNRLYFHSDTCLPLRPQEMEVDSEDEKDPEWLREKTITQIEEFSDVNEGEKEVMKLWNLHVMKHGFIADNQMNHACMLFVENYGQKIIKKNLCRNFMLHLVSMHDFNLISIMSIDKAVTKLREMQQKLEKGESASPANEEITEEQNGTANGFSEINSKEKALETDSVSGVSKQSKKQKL
T1 sequence (Q09028 whole entry partner): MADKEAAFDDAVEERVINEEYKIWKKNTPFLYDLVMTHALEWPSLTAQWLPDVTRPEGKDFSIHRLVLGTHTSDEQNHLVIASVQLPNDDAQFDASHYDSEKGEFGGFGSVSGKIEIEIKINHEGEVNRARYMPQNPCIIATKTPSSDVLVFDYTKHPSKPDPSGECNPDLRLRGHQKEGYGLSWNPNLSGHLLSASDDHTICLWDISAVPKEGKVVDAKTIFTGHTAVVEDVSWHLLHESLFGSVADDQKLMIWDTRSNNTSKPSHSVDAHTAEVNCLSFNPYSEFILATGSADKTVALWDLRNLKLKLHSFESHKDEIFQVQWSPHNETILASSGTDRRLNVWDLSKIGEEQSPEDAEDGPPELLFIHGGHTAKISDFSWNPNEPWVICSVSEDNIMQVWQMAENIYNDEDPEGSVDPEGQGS
T1 sequence (Q6ZN18 whole entry partner): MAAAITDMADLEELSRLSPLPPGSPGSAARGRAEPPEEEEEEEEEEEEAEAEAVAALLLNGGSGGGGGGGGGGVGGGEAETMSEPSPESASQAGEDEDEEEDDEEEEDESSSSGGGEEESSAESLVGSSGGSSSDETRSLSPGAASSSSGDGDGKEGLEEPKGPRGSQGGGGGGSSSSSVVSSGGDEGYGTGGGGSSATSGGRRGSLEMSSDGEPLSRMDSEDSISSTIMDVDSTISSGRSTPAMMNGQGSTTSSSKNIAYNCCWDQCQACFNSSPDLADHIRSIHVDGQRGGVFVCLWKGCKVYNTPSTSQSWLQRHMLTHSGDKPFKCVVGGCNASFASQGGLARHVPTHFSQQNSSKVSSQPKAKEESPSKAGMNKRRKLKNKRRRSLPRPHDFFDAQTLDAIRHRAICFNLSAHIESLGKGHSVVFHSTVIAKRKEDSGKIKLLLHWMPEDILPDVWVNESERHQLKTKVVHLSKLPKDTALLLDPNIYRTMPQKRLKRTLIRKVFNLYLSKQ

| IC50 | SMILES |
| --- | --- |
| 316 nM | CCC(c1scc(C(=O)NCc2c(C)cc(C)[nH]c2=O)c1C)C1CCN(/C(=N\C#N)NC)CC1 (stereo not drawn) [Example 19, 5-(1-(1-(N′-Cyano-N-methylcarbamimidoyl)piperidin-4-yl)propyl)-N-((4,6-dimethyl-2-oxo-1,2-dihydropyridin-3-yl)methyl)-4-methylthiophene-3-carboxamide] |
| 20 nM | CCC(c1scc(C(=O)NCc2c(C)cc(C)[nH]c2=O)c1C)C1CCN(CC(F)(F)F)CC1 (racemic) [Example 11, N-((4,6-Dimethyl-2-oxo-1,2-dihydropyridin-3-yl)methyl)-4-methyl-5-(1-(1-(2,2,2-trifluoroethyl)piperidin-4-yl)propyl)thiophene-3-carboxamide] |
| ≤ 10 nM | CCC(=C1CCN(Cc2ncco2)CC1)c1scc(C(=O)NCc2c(C)cc(C)[nH]c2=O)c1C [Example 12, N-((4,6-Dimethyl-2-oxo-1,2-dihydropyridin-3-yl)methyl)-4-methyl-5-(1-(1-(oxazol-2-ylmethyl)piperidin-4-ylidene)propyl)thiophene-3-carboxamide] |
